In assay [1] the test system is H9. Description: Tested for the inhibitory activity against HIV-1 in H-9 cell lines assessed by syncytium formation and reverse transcriptase assay. The class given is functional, cell-based. The settings on record: Homo sapiens.
For assay [2], the system named is SUP-T1. Description: Tested for the inhibitory activity against HIV-1 in Sup T1 cell lines assessed by syncytium formation and reverse transcriptase assay. The assay is classed as functional, cell-based. The note with it: Homo sapiens.
Assay [3] has as its target Human immunodeficiency virus type 1 protease (Human immunodeficiency virus 1) (UniProt Q72874). Description: Ratio of inactivation constant (Kina) and inhibition constant (Ki) was determined.
Assay [4] concerns the target Human immunodeficiency virus type 1 protease (Human immunodeficiency virus 1, UniProt Q72874). Description: Compound was tested for the inhibition activity against HIV-1 protease.
The target in assay [5] is Human immunodeficiency virus type 1 protease (Human immunodeficiency virus 1) (UniProt Q72874). Description: Rate of irreversible inactivation of HIV 1 protease by the compound was determined.
Assay [6] has as its system H9. Description: Tested for the inhibitory activity against HIV-1 in H-9 and Sup T1 cell lines assessed by syncytium formation and reverse transcriptase assay. The assay is classed as functional, cell-based. The settings on record: Homo sapiens.
The subject of assay [7] is H9. Description: 50% Cytoxic value against HIV-1 in H-9 cell lines was evaluated. The class given is functional, Homo sapiens.
The test system of assay [8] is SUP-T1. Description: 50% Cytoxic value against HIV-1 in Sup T1 cell lines was evaluated. The class given is functional, Homo sapiens.

Structures are written as SMILES.

Broadly, the IC50 is the midpoint of a concentration-inhibition curve. Broadly, the Ki is a measure of affinity in units of concentration, obtained from inhibition or displacement. Read a low Ki as tighter binding.

For `Cc1cn([C@H]2C[C@H](N=[N+]=[N-])[C@@H](CO)O2)c(=O)[nH]c1=O` [ZIDOVUDINE], the IC50 with H9 [1] and in the assay with SUP-T1 [2] was 50 nM in each case.

`CC(C)[C@H](NC(=O)OCc1cccnc1)C(=O)NC[C@@H]1O[C@@H]1[C@H](Cc1ccccc1)NC(=O)[C@H](NC(=O)OCc1cccnc1)C(C)C`: the K inact/Ki in assay [3] was determined as 23300 M⁻¹ s⁻¹. The molecule further returned an inhibition constant (Ki) in assay [4] of 70 nM.

For `CC(C)[C@H](NC(=O)N(C)Cc1ccccn1)C(=O)N[C@@H](Cc1ccccc1)[C@@H](O)[C@H](O)[C@H](Cc1ccccc1)NC(=O)[C@@H](NC(=O)N(C)Cc1ccccn1)C(C)C`, the inhibition constant (Ki) in assay [4] was under 1 nM.

For `CC(C)[C@H](NC(=O)OCc1ccccc1)C(=O)N[C@@H](Cc1ccccc1)[C@H](O)[C@H](O)[C@H](Cc1ccccc1)NC(=O)[C@@H](NC(=O)OCc1ccccc1)C(C)C`, the Ki in assay [4] was under 1 nM.

The molecule `CC(C)[C@H](NC(=O)OCc1ccccc1)C(=O)N[C@@H](Cc1ccccc1)C1OC1[C@H](Cc1ccccc1)NC(=O)[C@@H](NC(=O)OCc1ccccc1)C(C)C` (some centres undefined) returned a Ki in assay [4] of 75 nM.

As for `CC(C)[C@H](NC(=O)N(C)Cc1ccccn1)C(=O)NC[C@@H]1O[C@@H]1[C@H](Cc1ccccc1)NC(=O)[C@H](NC(=O)N(C)Cc1ccccn1)C(C)C`, the K inact/Ki in assay [3] was 367000 M⁻¹ s⁻¹. Further, the affinity in assay [4], expressed as Ki, was 16 nM.

As to `O=[N+]([O-])c1ccc(OCC2CO2)cc1` (centres undefined), in assay [5], the Kina was determined as 0.004 min⁻¹.

On to `CC(C)(C)NC(=O)[C@@H]1C[C@@H]2CCCC[C@@H]2CN1C[C@@H](O)[C@H](Cc1ccccc1)NC(=O)[C@H](CC(N)=O)NC(=O)c1ccc2ccccc2n1` [SAQUINAVIR], for which the IC50 in the assay on H9 [1] and in the assay on SUP-T1 [2] was 20 nM throughout.

`CC(C)[C@H](NC(=O)OCc1ccncc1)C(=O)NC[C@@H]1O[C@@H]1[C@H](Cc1ccccc1)NC(=O)[C@H](NC(=O)OCc1ccncc1)C(C)C`: the K inact/Ki in assay [3] stood at 5670 M⁻¹ s⁻¹. In assay [4], this molecule returned a Ki of 300 nM.

With `CC(C)[C@H](NC(=O)OCc1ccccc1)C(=O)NC[C@@H]1O[C@@H]1[C@H](Cc1ccccc1)NC(=O)[C@H](NC(=O)OCc1ccccc1)C(C)C`, the IC50 with H9 [6] and with SUP-T1 [2] was 30 nM each time. Moreover, the CT50 in the assay with H9 [7] and in the assay on SUP-T1 [8] was over 100 µM in each case. For the same molecule, the K inact/Ki in assay [3] is 2.5e+06 M⁻¹ s⁻¹. The same molecule came in with a Ki in assay [4] of 0.1 nM.

With `CC(C)[C@H](NC(=O)OCc1ccccc1)C(=O)NC(C)[C@@H]1O[C@@H]1[C@H](Cc1ccccc1)NC(=O)[C@H](NC(=O)OCc1ccccc1)C(C)C` (some centres undefined), in assay [3], the K inact/Ki amounted to 667000 M⁻¹ s⁻¹. Moreover, the inhibitory constant (Ki) in assay [4] was determined as 4 nM.

`CC(C)[C@H](NC(=O)OCc1ccccn1)C(=O)NC[C@@H]1O[C@@H]1[C@H](Cc1ccccc1)NC(=O)[C@H](NC(=O)OCc1ccccn1)C(C)C`: the K inact/Ki in assay [3] was 383000 M⁻¹ s⁻¹. In addition, the Ki in assay [4] came out at 11 nM.
